Patent publication US20060069132A1, “Azolecarboxamide herbicides” (priority 2004, published 2006)

Columns and labels:
rice [1] = assay: Test B pre-/postemergence herbicide test; format: in vivo, Oryza sativa; details: 0 = no effect, 100 = complete control, preemergence
Procedure, shortened: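 Species tested were Echinochloa crus-galli, Ipomoea coccinea, Xanthium strumarium and Oryza sativa, treated both before emergence and at the 1- to 4-leaf stage; rice and barnyardgrass were also tested under flooding at 2 leaves. Greenhouse incubation lasted 13–15 days before visual 0–100 scoring.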

velvetleaf = assay: Test B pre-/postemergence herbicide test; format: in vivo, Abutilon theophrasti; details: for Velvetleaf plant response rating: postemergence, scale 0 (no effect) to 100 (complete control)
Procedure, shortened: (§1)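 Greenhouse pot assay with simultaneous preemergence (treated seed) and postemergence (2–18 cm seedlings) applications of surfactant-containing, non-phytotoxic solvent formulations. Response scored visually 13–15 days later on a 0–100 scale, 100 meaning complete control.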

pigweed = assay: Test B pre-/postemergence herbicide test; format: in vivo, Amaranthus retroflexus; details: for Pigweed plant response rating: postemergence, scale 0 (no effect) to 100 (complete control)
Procedure, shortened: as §1

lambsquarters = assay: Test B pre-/postemergence herbicide test; format: in vivo, Chenopodium album; details: for Lambsquarters plant response rating: postemergence, scale 0 (no effect) to 100 (complete control)
Procedure, shortened: as §1

cocklebur = assay: Test B pre-/postemergence herbicide test; format: in vivo, Xanthium strumarium; details: for Cocklebur plant response rating: postemergence, scale 0 (no effect) to 100 (complete control)
Procedure, shortened: as §1

rice [2] = assay: Test B flooded paddy test; format: in vivo, Oryza sativa; details: 1000 g ai/ha, scale 0 to 100 (0 no effect, 100 complete control)
Procedure, shortened: (§2)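 Greenhouse test; postemergence application to plants at 1–4 leaves (2–18 cm); paddy species at 2 leaves; evaluated visually vs controls at 13–15 days; scale 0–100 (100 = complete control).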

Surinam grass = assay: Test B pre-/postemergence herbicide test; format: in vivo, Urochloa decumbens; details: for Surinam Grass plant response rating: postemergence, scale 0 (no effect) to 100 (complete control)
Procedure, shortened: as §1

barnyardgrass [3] = assay: Test C flooded paddy test; format: in vivo, Echinochloa crus-galli
Procedure, shortened: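 Postemergence sprays were applied to plants 2 to 18 cm tall (1- to 4-leaf stage); in the flooded paddy test, barnyardgrass was grown to the 2-leaf stage. After 12 to 14 days in a greenhouse, injury was visually rated against untreated controls on a 0–100 scale (100 = complete control).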

large crabgrass = assay: Test B pre-/postemergence herbicide test; format: in vivo, Digitaria sanguinalis; details: for Crabgrass, Large plant response rating: postemergence, scale 0 (no effect) to 100 (complete control)
Procedure, shortened: as §1

barnyardgrass [4] = assay: Test B flooded paddy test; format: in vivo, Echinochloa crus-galli; details: 1000 g ai/ha, scale 0 to 100 (0 no effect, 100 complete control)
Procedure, shortened: as §2

ducksalad [5] = assay: Test B flooded paddy test; format: in vivo, Heteranthera limosa; details: 1000 g ai/ha, scale 0 to 100 (0 no effect, 100 complete control)
Procedure, shortened: as §2

morningglory = assay: Test B pre-/postemergence herbicide test; format: in vivo, Ipomoea coccinea
Procedure, shortened: as §1

blackgrass = assay: Test B postemergence herbicide test; format: in vivo, Alopecurus myosuroides; details: postemergence, visual rating, scale 0 (no effect) to 100 (complete control)
Procedure, shortened: as §2

corn = assay: Test B pre-/postemergence herbicide test; format: in vivo, Zea mays; details: for Corn plant response rating: postemergence, scale 0 (no effect) to 100 (complete control)
Procedure, shortened: as §1

wheat = assay: Test B postemergence herbicide test; format: in vivo, Triticum aestivum; set-up: key to Wheat plant response rating: 0 = no effect, 100 = complete control; details: postemergence, visual rating, scale 0 (no effect) to 100 (complete control)
Procedure, shortened: (§3)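 Read-out: visual comparison with controls, scored 0 to 100, where 100 means complete control and 0 no effect. Formulated chemicals were applied postemergence to plants 2–18 cm tall (1- to 4-leaf), or to flooded-paddy plants at the 2-leaf stage, then held 13 to 15 days under glass.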

rice [6] = assay: Test C flooded paddy test; format: in vivo, Oryza sativa
Procedure, shortened: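 Postemergence sprays applied to plants 2 to 18 cm tall (1- to 4-leaf stage); paddy species grown to 2-leaf stage under flooding. After 12 to 14 days in greenhouse, visual rating versus untreated controls on 0–100 scale (0 no effect, 100 complete control).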

giant foxtail = assay: Test B pre-/postemergence herbicide test; format: in vivo, Setaria faberi; details: for Foxtail, Giant plant response rating: postemergence, scale 0 (no effect) to 100 (complete control)
Procedure, shortened: as §1

ducksalad [7] = assay: Test C flooded paddy test; format: in vivo, Heteranthera limosa
wild oat = assay: Test B postemergence herbicide test; format: in vivo, Avena fatua; details: postemergence, visual rating, scale 0 (no effect) to 100 (complete control)
Procedure, shortened: as §3

[8] = system: smallflower umbrella sedge; assay: Test C flooded paddy test; format: in vivo, Cyperus difformis
[9] = system: small flower umbrella sedge; assay: Test B flooded paddy test; format: in vivo, Cyperus difformis; details: 1000 g ai/ha, scale 0 to 100 (0 no effect, 100 complete control)
Procedure, shortened: as §2

barnyardgrass [10] = assay: Test B pre-/postemergence herbicide test; format: in vivo, Echinochloa crus-galli; details: 0 = no effect, 100 = complete control, preemergence
Procedure, shortened: as §1

[11] = 125 g ai/ha, 0 = no effect, 100 = complete control, preemergence
[12] = 500 g ai/ha, visual rating, 0 = no effect, 100 = complete control, preemergence
[13] = 62 g ai/ha, scale 0 to 100 (0 no effect, 100 complete control)
[14] = 125 g ai/ha, scale 0 to 100 (0 no effect, 100 complete control)
[15] = 250 g ai/ha, scale of 0 to 100, 0 is no effect, 100 is complete control
[16] = 500 g ai/ha, visual rating after 12 to 14 days, scale 0 to 100 (0 no effect, 100 complete control)

CCc1cn(C(C)(C)C)nc1C(=O)Nc1cc(C(=O)N(C)CC)ccn1 [Compound 235]
Rice plant response rating (0 to 100 scale) (rice [1]; 125 g ai/ha): 0 | Plant response rating, Rice (rice [1]; 500 g ai/ha, visual rating): 20 | Velvetleaf plant response rating (0 to 100 scale) (velvetleaf; [11]): 10 | Plant response rating, Velvetleaf (velvetleaf; [12]): 30 | Velvetleaf plant response rating (velvetleaf; 125 g ai/ha, visual rating): 20 | Velvetleaf plant response rating (velvetleaf; 500 g ai/ha, visual rating): 30 | Pigweed plant response rating (0 to 100 scale) (pigweed; [11]): 30 | Plant response rating, Pigweed (pigweed; [12]): 100 | Pigweed plant response rating (pigweed; 125 g ai/ha, visual rating): 30 | Pigweed plant response rating (pigweed; 500 g ai/ha, visual rating): 40 | Lambsquarters plant response rating (0 to 100 scale) (lambsquarters; [11]): 50 | Plant response rating, Lambsquarters (lambsquarters; [12]): 90 | Lambsquarters plant response rating (lambsquarters; 125 g ai/ha, visual rating): 40 | Lambsquarters plant response rating (lambsquarters; 500 g ai/ha, visual rating): 50 | Cocklebur plant response rating (0 to 100 scale) (cocklebur; [11]): 0 | Plant response rating, Cocklebur (cocklebur; [12]): 0 | Cocklebur plant response rating (cocklebur; 125 g ai/ha, visual rating): 0 | Cocklebur plant response rating (cocklebur; 500 g ai/ha, visual rating): 30 | Rice plant response rating (rice [2]): 40 | Surinam Grass plant response rating (0 to 100 scale) (Surinam grass; [11]): 10 | Plant response rating, Surinam Grass (Surinam grass; [12]): 60 | Surinam Grass plant response rating (Surinam grass; 125 g ai/ha, visual rating): 10 | Surinam Grass plant response rating (Surinam grass; 500 g ai/ha, visual rating): 10 | Barnyardgrass plant response rating (barnyardgrass [3]; [13]): 0 | Barnyardgrass plant response rating (barnyardgrass [3]; [14]): 0 | Barnyardgrass plant response rating (barnyardgrass [3]; [15]): 0 | Plant response rating, Barnyardgrass (barnyardgrass [3]; [16]): 0 | Crabgrass, Large plant response rating (0 to 100 scale) (large crabgrass; [11]): 40 | Plant response rating, Crabgrass, Large (large crabgrass; [12]): 90 | Crabgrass, Large plant response rating (large crabgrass; 125 g ai/ha, visual rating): 10 | Crabgrass, Large plant response rating (large crabgrass; 500 g ai/ha, visual rating): 20 | Barnyardgrass plant response rating (barnyardgrass [4]): 40 | Ducksalad plant response rating (ducksalad [5]): 90 | Morningglory plant response rating (0 to 100 scale) (morningglory; [11]): 10 | Plant response rating, Morningglory (morningglory; [12]): 10 | Morningglory plant response rating (morningglory; postemergence, 500 g ai/ha, visual rating, scale 0 (no effect) to 100 (complete control)): 70 | Blackgrass plant response rating (blackgrass; 125 g ai/ha): 0 | Blackgrass plant response rating (blackgrass; 500 g ai/ha): 20 | Corn plant response rating (0 to 100 scale) (corn; [11]): 0 | Plant response rating, Corn (corn; [12]): 20 | Corn plant response rating (corn; 125 g ai/ha, visual rating): 20 | Corn plant response rating (corn; 500 g ai/ha, visual rating): 40 | Wheat plant response rating (wheat; 125 g ai/ha): 0 | Wheat plant response rating (wheat; 500 g ai/ha): 20 | Rice plant response rating (rice [6]; [13]): 0 | Rice plant response rating (rice [6]; [14]): 0 | Rice plant response rating (rice [6]; [15]): 25 | Plant response rating, Rice (rice [6]; [16]): 35 | Foxtail, Giant plant response rating (0 to 100 scale) (giant foxtail; [11]): 0 | Plant response rating, Foxtail, Giant (giant foxtail; [12]): 50 | Foxtail, Giant plant response rating (giant foxtail; 125 g ai/ha, visual rating): 10 | Foxtail, Giant plant response rating (giant foxtail; 500 g ai/ha, visual rating): 30 | Ducksalad plant response rating (ducksalad [7]; [13]): 0 | Ducksalad plant response rating (ducksalad [7]; [14]): 0 | Ducksalad plant response rating (ducksalad [7]; [15]): 0 | Plant response rating, Ducksalad (ducksalad [7]; [16]): 75 | Oat, Wild plant response rating (wild oat; 125 g ai/ha): 10 | Oat, Wild plant response rating (wild oat; 500 g ai/ha): 20 | Sedge, Umbrella plant response rating [8, 13]: 0 | Sedge, Umbrella plant response rating [8, 14]: 50 | Sedge, Umbrella plant response rating [8, 15]: 55 | Plant response rating, Sedge, Umbrella [8, 16]: 80 | Sedge, Umbrella plant response rating [9]: 80 | Barnyardgrass plant response rating (0 to 100 scale) (barnyardgrass [10]; 125 g ai/ha): 10 | Plant response rating, Barnyardgrass (barnyardgrass [10]; 500 g ai/ha, visual rating): 50
